Like-named read-outs stand apart in the source and are kept apart here.
Columns and labels:
Format in all cases: in vivo
Macrosiphum Euphorbiae = assay: Biological activity on Macrosiphum euphorbiae (aphides), potato seedlings sprayed with aqueous dispersion
Method: Biological Activity on Macrosiphum Euphorbiae (Aphides)
Potato seedlings, cultivated in pots, were infested with adult aphide females and, after a few hours, were sprayed with an aqueous dispersion of the compounds listed in Table 6. The mortality percentage was determined 24 hours after the treatment (on control non-treated seedlings, the mortality percentage was 0).
(§1) To show the variation in activity from one compound to another, depending on the species used, the activities of compounds according to this invention were investigated at different concentrations, expressed as percent of active principle, on various infesting species. The mortality percentage was computed in the same way as in the preceding examples.

Culex Pipiens = assay: Biological activity on Culex pipiens (mosquito larvae in aqueous dispersion); details: read-out: % mort. Culex Pipiens
Description: Biological Activity on Culex Pipiens (Diptera)
Mosquito larvae of the third and fourth ages were introduced into glass pots containing an aqueous dispersion of the compounds shown at 2 ppm and 0.2 ppm.
as §1

[1] = tested on: Leptinotarsa Decimlineata; assay: Biological activity on Leptinotarsa decemlineata larvae, sprayed potato seedlings; details: read-out: % mort. Leptinot. Decemlin.
Description: Biological Activity on Leptinotarsa Decimlineata Coleoptera
Potato seedlings cultivated in pots were infested with 4-day old larvae and sprayed with an aqueous dispersion of the compounds according to this invention and Aminocarb as a comparison at doses of […]; respectively. The mortality percentage of the control, untreated seedlings, was zero.
as §1

Pieris Brassicae [2] = assay: Biological activity on Pieris brassicae larvae, sprayed cut cauliflower leaves; details: read-out: % mort. Pieris Brassicae
Description: Biological Activity on Pieris Brassicae (Lepidoptera)
Cut leaves of cauliflower were sprayed with an aqueous dispersion of compound according to this invention at a 0.1% concentration. After drying, they were infested with 5-day old larvae. The mortality percentage of the control, untreated leaves, was zero.
as §1

Tetranychus Urticae = assay: Biological activity on Tetranychus urticae eggs, bean leaf discs; details: topical, read-out: % mort. Tetran. Urt. eggs
Description: Biological Activity on Tetranychus Urticae (Acari)
Small discs of bean leaves were infested with acarus eggs and successively treated by spraying with an aqueous dispersion of a compound of this invention and Aminocarb as a comparison, at concentrations of 0.1 and 0.01%. The mortality percentage of the control, untreated discs, was zero.
as §1

Spodoptera Littoralis [3] = assay: Biological activity on Spodoptera littoralis larvae, sprayed cut tobacco leaves; details: 48 h, read-out: % mort. Spodopt. Littoralis
Description: Biological Activity on Spodoptera Littoralis (Lepidoptera)
Cut tobacco leaves were sprayed with a 0.1% aqueous dispersion of compounds according to the present invention, shown in Table 12. After drying, the leaves were infested with 5-day old lepidopter larvae. The mortality percentage of the control was zero.
as §1

Pieris Brassicae [4] = assay: Persistence of insecticidal activity in the field, Pieris brassicae on cauliflower plants; details: 0.5 percent; for mortality at 0.5 %: read-out: Mortality Percent of Pieris Brassicae Larvae
Description: The persistence of insecticidal activity in the field using the insect Pieris brassicae was examined as follows:
Cauliflower plants grown under natural conditions in the field were sprinkled with an aqueous suspension of compounds according to this invention identified hereinabove as M 7361 and M 8157. For purposes of comparison, cauliflower plants were sprinkled with an aqueous suspension of a compound according to U.S. Pat. No. 3,819,678, identified hereinabove as M 7481.
After the respective time periods shown in Table 15, leaves of the sprinkled plants were picked and brought to the laboratory where they were infested with 10-day old larvae of Pieris brassicae and then kept under observation. The percent of mortality of the insects was determined 48 hours after infestation in all cases. The percent mortality of the control, unsprinkled cauliflower leaves, was zero.

Spodoptera Littoralis [5] = assay: Persistence of insecticidal activity in the field, Spodoptera littoralis on Ricinus plants; details: one percent, read-out: Mortality Percent of Spodoptera Littoralis Larvae
Description: The persistence of insecticidal activity in the field using the insect Spodoptera littoralis was examined as follows:
Ricinus plants grown in the field under natural conditions were sprinkled with an aqueous suspension of the insecticidal compounds according to this invention designated hereinabove as M 7361 and M 8157. For purposes of comparison, an aqueous suspension of each of M 7481 and M 7488, according to U.S. Pat. No. 3,819,678 and identified above, was sprinkled on similarly grown Ricinus plants.
After the time periods shown in Table 16, leaves of the sprinkled plants were picked and brought to the laboratory where they were infested with 10-day old larvae of Spodoptera littoralis and then kept under observation. The mortality percent of the control unsprinkled leaves was zero.

[6] = tested on: Leptinotarsa decemlineata; assay: Persistence of insecticidal activity in the field, Leptinotarsa decemlineata on potato plants; details: 0.2 percent
Description: The persistence of insecticidal activity in the field using the insect Leptinotarsa decemlineata was examined as follows:
Potato plants grown in the field under natural conditions were sprinkled with an aqueous suspension of compound M 7361 which is according to this invention and identified hereinabove. For purposes of comparison, similarly grown potato plants were sprinkled with an aqueous suspension of the compounds M 7488 and M 7481, respectively, both according to U.S. Pat. No. 3,819,678 and identified above.
After the time periods shown in Table 17, leaves of the sprinkled plants were picked and brought to the laboratory where they were infested with 10 day-old larvae of Leptinotarsa decemlineata and then kept under observation. After 48 hours, the percent of mortality of the insects was determined. The mortality percent of the control unsprinkled leaves was zero.

Musca Domestica = assay: Biological activity on Musca domestica, topical application to adults; details: 24 h, read-out: Percent of Mortality
Method: Biological Activity on Musca Domestica (Diptera)
Four day old adults were treated by topical application through a microsyringe with 1 mm^3 of an acetonic solution of the compounds shown in such concentrations that they received doses of 5γ/insect; 2γ/insect; 0.5γ/insect of active principle. The mortality percentage 24 hours after the treatment is reported in Table 8 (mortality of insects treated with 1 mm^3 of acetone = 0).

[7] = read-out: % mort. Macrosiphum Euphorbiae
[8] = 120 h, 5 days after field treatment
[9] = 216 h, 9 days after field treatment
[10] = 336 h, 14 days after field treatment
[11] = 408 h, 17 days after field treatment
[12] = 528 h, 22 days after field treatment
[13] = 264 h, 11 days after field treatment
[14] = 432 h, 18 days after field treatment
[15] = 600 h, 25 days after field treatment
[16] = 96 h, 4 days after field treatment
[17] = 168 h, 7 days after field treatment

SMILES | period for which insecticidal activity is fully retained in the field (Pieris Brassicae [4]) | mortality at 0.5 % (Pieris Brassicae [4]; 2 hours after field treatment) [%] | mortality at 0.5 % (Pieris Brassicae [4]; [8]) [%] | mortality at 0.5 % (Pieris Brassicae [4]; [9]) [%] | mortality at 0.5 % (Pieris Brassicae [4]; [10]) [%] | mortality at 0.5 % (Pieris Brassicae [4]; [11]) [%] | mortality at 0.5 % (Pieris Brassicae [4]; [12]) [%] | mortality at 1 % (Spodoptera Littoralis [5]; [8]) [%] | mortality at 1 % (Spodoptera Littoralis [5]; [13]) [%] | mortality at 1 % (Spodoptera Littoralis [5]; [10]) [%] | mortality at 1 % (Spodoptera Littoralis [5]; [14]) [%] | mortality at 1 % (Spodoptera Littoralis [5]; [15]) [%] | mortality at 1 % (Spodoptera Littoralis [5]; 2 hours after field treatment) [%] | mortality at 0.2 % ([6]; 2 hours after field treatment) [%] | mortality at 0.2 % [6, 16] [%] | mortality at 0.2 % [6, 17] [%] | mortality at 0.2 % [6, 13] [%] | mortality at 0.2 % [6, 14] [%] | mortality at 0.2 % [6, 15] [%] | also measured
CNC(=O)Oc1cc(C)ccc1NCC(Cl)=C(Cl)Cl [M 6773, N-methylcarbamate of 3-methyl-6-(2,3,3-trichloroallylamino)-phenol] | – | – | – | – | – | – | – | – | – | – | – | – | – | – | – | – | – | – | – | mortality at 0.01 % (Macrosiphum Euphorbiae; 24 h, read-out: Mortality Percent): 75%
CNC(=O)Oc1cc(C)c(NCC=C(Cl)Cl)c(C)c1 [M 7361] | at least 22 days | 100 | 100 | 100 | 100 | 100 | 100 | 100 | 100 | 100 | 100 | 100 | 100 | 100 | 100 | 100 | 100 | 100 | 73 | mortality at 0.01 % (Macrosiphum Euphorbiae; [7]): 17%; mortality at 0.1 % (Macrosiphum Euphorbiae; [7]): 81%; mortality at 1 % (Macrosiphum Euphorbiae; [7]): 100%; mortality at 2 ppm (Culex Pipiens): 40%; mortality at 0.01 % [1]: 52%; mortality at 0.1 % [1]: 97%; mortality at 1 % [1]: 100%; mortality at 0.01 % (Pieris Brassicae [2]; Table 14, 0.01% a.p.): 15%; mortality at 0.1 % (Pieris Brassicae [2]; Table 14, 0.1% a.p.): 97%; mortality at 1 % (Pieris Brassicae [2]; Table 14, 1% a.p.): 100%; mortality at 1 % (Tetranychus Urticae): 13%; mortality at 0.01 % (Spodoptera Littoralis [3]; Table 14, 0.01% a.p.): 7%; mortality at 0.1 % (Spodoptera Littoralis [3]; Table 14, 0.1% a.p.): 72%; mortality at 1 % (Spodoptera Littoralis [3]; Table 14, 1% a.p.): 100%
CNC(=O)Oc1cc(C)c(N(C)CC=C(Cl)Cl)c(C)c1 [M 7481, reference compound] | – | 100 | 55 | 30 | 0 | 0 | 0 | 100 | 77 | 60 | 47 | 40 | 100 | 100 | 60 | 20 | 0 | 0 | 0 | time after which totally ineffective in the field (Pieris Brassicae [4]): 14 days; time at which activity begins to be lost in the field (Pieris Brassicae [4]): 2 to 5 days
CNC(=O)Oc1cc(C)c(N(CC=C(Cl)Cl)CC=C(Cl)Cl)c(C)c1 [M 7488, reference compound] | – | – | – | – | – | – | – | 92 | 47 | 38 | 22 | 0 | 100 | 100 | 70 | 20 | 10 | 0 | 0 | –
CNC(=O)Oc1cc(C)c(NCC(Cl)=C(Cl)Cl)c(C)c1 [M 8157] | at least 22 days | 100 | 100 | 100 | 100 | 100 | 100 | 100 | 100 | 100 | 100 | 100 | 100 | – | – | – | – | – | – | –
CNC(=O)Oc1cc(C)c(N(C)C)c(C)c1 [Zectran, reference compound] | – | – | – | – | – | – | – | – | – | – | – | – | – | – | – | – | – | – | – | mortality at 0.5 µg/insect (Musca Domestica): 0%; mortality at 2 µg/insect (Musca Domestica): 60%

From patent US4109011A, “Insecticide carbamates of N-(polychloroallyl)-amino-phenols” (priority 1975, dated 1978)
